Data as given in EP4603105A1, “PHARMACEUTICAL COMPOSITION CONTAINING CYCLIC COMPOUND HAVING SELECTIVE KRAS INHIBITORY EFFECT AGAINST HRAS AND NRAS” (CHUGAI SEIYAKU KABUSHIKI KAISHA, priority 2022, dated 2024).
Like-named read-outs stand apart in the source and are kept apart here.

Key:
[1] = target: GDP-bound KRAS wild-type protein (Homo sapiens, UniProt P01116); assay: Binding to KRAS by surface plasmon resonance (SPR), dissociation constant KD
How it was run: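 Single-cycle kinetics on GDP-loaded biotin-Avi RAS captured to ~100–300 RU; 75 s ascending injections, 100 µL/min, 30°C. HBS pH 7.4 + 10 mM MgCl2/10 µM GDP/4% DMSO. 1:1 fit, KD.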

[2] = tested on: human lung cancer strain NCI-H441; assay: NCI-H441 cell proliferation inhibitory activity (CellTiter-Glo, 4 days); format: cell-based; details: read-out: NCl-H441 IC50
How it was run: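 Step one: dispense the test compound in serial DMSO dilutions. Step three: add the reagent and measure […].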

[3] = target: GDP-bound NRAS wild-type protein (Homo sapiens, UniProt P01111); assay: Binding to NRAS by surface plasmon resonance (SPR), KD and KD ratio to KRAS
GDP-bound NRAS wild-type protein, sequence (P01111 whole entry): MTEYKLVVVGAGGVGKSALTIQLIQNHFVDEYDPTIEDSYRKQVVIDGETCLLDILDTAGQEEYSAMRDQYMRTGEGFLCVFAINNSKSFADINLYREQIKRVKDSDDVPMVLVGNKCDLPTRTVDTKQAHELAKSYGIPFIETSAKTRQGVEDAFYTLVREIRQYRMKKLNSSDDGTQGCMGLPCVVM
How it was run: (§1)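 Captured GDP-RAS (~100–300 RU) was exposed to increasing compound concentrations, 75 s per step, in running buffer with 10 µM GDP, 10 mM MgCl2 and 4% DMSO at pH 7.4.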

HRAS wild-type protein = HRAS wild-type protein (Homo sapiens, UniProt P01112); assay: Binding to HRAS by surface plasmon resonance (SPR), KD and KD ratio to KRAS
HRAS wild-type protein, sequence (P01112 whole entry): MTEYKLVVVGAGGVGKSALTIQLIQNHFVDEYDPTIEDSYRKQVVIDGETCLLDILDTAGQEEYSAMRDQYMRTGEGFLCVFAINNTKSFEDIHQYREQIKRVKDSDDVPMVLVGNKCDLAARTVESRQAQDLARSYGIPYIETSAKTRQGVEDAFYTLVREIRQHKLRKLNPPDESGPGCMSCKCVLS
How it was run: as §1

[4] = ratio of KD for GDP-bound NRAS wild-type protein to KD for KRAS
[5] = ratio of KD for HRAS wild-type protein to KD for KRAS
[6] = Single Cycle Kinetics, 1:1 binding model
[7] = 50% proliferation inhibitory concentration, four days
[8] = ratio of KD with respect to GDP-bound NRAS wild-type protein to KD with respect to KRAS
[9] = ratio of KD with respect to HRAS wild-type protein to KD with respect to KRAS

GDP-bound KRAS wild-type protein, sequence (P01116 1-188 isoform P01116-2): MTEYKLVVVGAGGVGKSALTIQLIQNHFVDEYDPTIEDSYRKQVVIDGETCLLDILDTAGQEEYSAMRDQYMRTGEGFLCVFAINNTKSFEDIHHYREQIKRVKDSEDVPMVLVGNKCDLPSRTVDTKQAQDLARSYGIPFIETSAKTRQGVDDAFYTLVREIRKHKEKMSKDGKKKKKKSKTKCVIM

Row | Structure (SMILES) | Kd ([1]; Single Cycle Kinetics) | IC50 ([2]; NCI-H441 cells, 4 days) | NRAS /KRAS [3, 4] | HRAS /KRAS (HRAS wild-type protein; [5]) | Kd [1, 6] | IC50 [2, 7] | NRAS /KRAS [3, 8] | HRAS /KRAS (HRAS wild-type protein; [9]) | Kd ([1]; 1:1 binding model)
1 | CCC[C@H]1C(=O)N[C@@H]([C@@H](C)CC)C(=O)N2CCC[C@H]2C(=O)N(C)[C@H]2C/C=C\CCN(C2=O)[C@@H](Cc2ccc(C(F)(F)F)cc2)C(=O)N(C)CC(=O)N[C@@H](CCc2ccc(C(F)(F)F)c(OC)c2)C(=O)N2CC[C@H](OC)[C@H]2C(=O)N(C)C2(CCC2)C(=O)N(C)[C@@H](C2CCCC2)C(=O)N(C)[C@H](C(=O)N(C)C)CC(=O)N1C [PP3241] | 0.31 nM | 10.5 nM | A (a compound having 10 or more and less than 20 is denoted as A) | B (a compound having 3 or more and less than 10 is denoted as B) |  |  |  |  | 
2 | CCC[C@H]1C(=O)N[C@@H]([C@@H](C)CC)C(=O)N(C2CC2)CC(=O)N(C)[C@H]2C/C=C\CCN(C2=O)[C@@H](Cc2ccc(C)cc2)C(=O)N(C)CC(=O)N[C@@H](CCc2cc(F)c(C(F)(F)F)c(F)c2)C(=O)N2C[C@H](OCC)C[C@H]2C(=O)NC2(CCCC2)C(=O)N(C)[C@@H](C2CCCC2)C(=O)N(C)[C@H](C(=O)N(C)C)CC(=O)N1C [PP3479] | 0.51 nM | 11.7 nM | A (a compound having 10 or more and less than 20 is denoted as A) | A (a compound having 10 or more and less than 20 is denoted as A) |  |  |  |  | 
3 | CCC[C@H]1C(=O)N[C@@H]([C@@H](C)CC)C(=O)N(C2CC2)CC(=O)N(C)[C@H]2C/C=C\CCN(C2=O)[C@@H](Cc2ccc(C)cc2)C(=O)N(C)CC(=O)N[C@@H](CCc2ccc(C(F)(F)F)c(OC)c2)C(=O)N2CC[C@H](OC)[C@H]2C(=O)N(C)C2(CCC2)C(=O)N(C)[C@@H](C2CCCC2)C(=O)N(C)[C@H](C(=O)N(C)C)CC(=O)N1C [PP3245] | 0.18 nM | 6.7 nM | A (a compound having 10 or more and less than 20 is denoted as A) | A (a compound having 10 or more and less than 20 is denoted as A) |  |  |  |  | 
4 | CC[C@H](C)[C@@H]1NC(=O)[C@H](CC2CC2)N(C)C(=O)C[C@@H](C)N(C)C(=O)[C@H](C2CCCC2)N(C)C(=O)C2(CCC2)NC(=O)[C@H](CC(F)F)N(C)C(=O)[C@H](CCc2cc(F)c(C(F)(F)F)c(F)c2)NC(=O)CN(C)C(=O)[C@H](Cc2ccc(C(F)(F)F)cc2)N2CC/C=C\C[C@@H](C2=O)N(C)C(=O)CN(C)C1=O [PP1405] |  |  |  |  | 8.5 nM | 466 nM | A (a compound having 10 or more and less than 20 is denoted as A) | A (a compound having 10 or more and less than 20 is denoted as A) | 
5 | CCO[C@@H]1C[C@H]2C(=O)NC(C)(C)C(=O)N(C)[C@@H](C3CCCC3)C(=O)N(C)[C@H](C(=O)N(C)C)CC(=O)N(C)[C@@H](CC(C)C)C(=O)N[C@@H]([C@@H](C)CC)C(=O)N(C)CC(=O)N(C)[C@H]3C/C(F)=C\CCN(C3=O)[C@@H](Cc3ccc(C)cc3)C(=O)N(C)CC(=O)N[C@@H](CCc3cc(F)c(C(F)(F)F)c(F)c3)C(=O)N2C1 [PP3523] | 0.59 nM | 23.9 nM | B (a compound having 3 or more and less than 10 is denoted as B) | B (a compound having 3 or more and less than 10 is denoted as B) |  |  |  |  | 
6 | CCC[C@H]1C(=O)N[C@@H]([C@@H](C)CC)C(=O)N2CCC[C@H]2C(=O)N(C)[C@H]2C/C=C\CCN(C2=O)[C@@H](Cc2ccc(C(F)(F)F)cc2)C(=O)N(C)CC(=O)N[C@@H](CCc2ccc(C(F)(F)F)c(Cl)c2)C(=O)N2CC[C@H](OC)[C@H]2C(=O)N(C)C2(CCC2)C(=O)N(C)[C@@H](C2CCCC2)C(=O)N(C)[C@H](C(=O)N(C)C)CC(=O)N1C [PP3289] | 0.26 nM | 17.6 nM | A (a compound having 10 or more and less than 20 is denoted as A) | A (a compound having 10 or more and less than 20 is denoted as A) |  |  |  |  | 
7 | CCCC[C@@H]1NC(=O)C[C@@H](C(=O)N(C)C)N(C)C(=O)[C@H](C2CCCC2)N(C)C(=O)C2(CC(C)(C)C2)NC(=O)[C@@H]2C[C@@H](OCC)CN2C(=O)[C@H](CCc2ccc(C(F)(F)F)c(OC)c2)NC(=O)CN(C)C(=O)[C@H](Cc2ccc(C(F)(F)F)cc2)N2CC/C=C\C[C@@H](C2=O)N(C)C(=O)CN(C)C(=O)[C@H]([C@@H](C)CC)NC1=O [PP3446] | 0.2 nM | 21.3 nM | A (a compound having 10 or more and less than 20 is denoted as A) | A (a compound having 10 or more and less than 20 is denoted as A) |  |  |  |  | 
8 | CCO[C@@H]1C[C@H]2C(=O)NC3(CCC3)C(=O)N(C)[C@@H](C3CCCC3)C(=O)N(C)[C@H](C(=O)N3CCOCC3)CC(=O)N(C)[C@@H](CC3CCCCC3)C(=O)N[C@@H]([C@@H](C)CC)C(=O)N(C)CC(=O)N(C)[C@H]3C/C=C\CCN(C3=O)[C@@H](Cc3ccc(C)cc3)C(=O)N(C)CC(=O)N[C@@H](CCc3cc(F)c(C(F)(F)F)c(F)c3)C(=O)N2C1 [PP1420] |  |  |  |  | 0.35 nM | 31.4 nM | A (a compound having 10 or more and less than 20 is denoted as A) | A (a compound having 10 or more and less than 20 is denoted as A) | 
9 | CCCO[C@@H]1C[C@H]2C(=O)NC3(CC(C)(C)C3)C(=O)N(C)[C@@H](C3CCCC3)C(=O)N(C)[C@H](C(=O)N(C)CC)CC(=O)N(C)[C@@H](COCC)C(=O)N[C@@H]([C@@H](C)CC)C(=O)N3C[C@@H](C)C[C@H]3C(=O)N(C)[C@H]3C/C=C\CCN(C3=O)[C@@H](Cc3ccc(C(F)(F)F)cc3)C(=O)N(C)CC(=O)N[C@@H](CCc3ccc(C(F)(F)F)c(Cl)c3)C(=O)N2C1 [PP3407] | 3.8 nM | 73.8 nM | A (a compound having 10 or more and less than 20 is denoted as A) | A (a compound having 10 or more and less than 20 is denoted as A) |  |  |  |  | 
10 | CCCO[C@@H]1C[C@H]2C(=O)NC3(CC(C)(C)C3)C(=O)N(C)[C@@H](C3CCCC3)C(=O)N(C)[C@H](C(=O)N(C)CC)CC(=O)N[C@@H](COCC)C(=O)N[C@@H]([C@@H](C)CC)C(=O)N(C3CC3)CC(=O)N(C)[C@H]3C/C=C\CCN(C3=O)[C@@H](Cc3ccc(C)cc3)C(=O)N(C)CC(=O)N[C@@H](CCc3ccc(C(F)(F)F)c(OC)c3)C(=O)N2C1 [PP3437] | 1.3 nM | 51.6 nM | AA (a compound having 20 or more is denoted as AA) | A (a compound having 10 or more and less than 20 is denoted as A) |  |  |  |  | 
11 | CCO[C@@H]1C[C@H]2C(=O)OC3(CCC3)C(=O)N(C)[C@@H](C3CCCC3)C(=O)N(C)[C@H](C(=O)N(C)C)CC(=O)N(C)[C@@H]([C@@H](C)OC)C(=O)N[C@@H]([C@@H](C)CC)C(=O)N(C3CC3)CC(=O)N(C)[C@H]3C/C=C\CCN(C3=O)[C@@H](Cc3ccc(C)cc3)C(=O)N(C)CC(=O)N[C@@H](CCc3ccc(C(F)(F)F)c(OC)c3)C(=O)N2C1 [PP3393] | 0.51 nM | 4.7 nM | A (a compound having 10 or more and less than 20 is denoted as A) | B (a compound having 3 or more and less than 10 is denoted as B) |  |  |  |  | 
12 | CCO[C@@H]1C[C@H]2C(=O)NC3(CCC3)C(=O)N(C)[C@@H](C3CCCC3)C(=O)N(C)[C@H](C(=O)N(C)C)CC(=O)N(C)[C@@H](C)C(=O)N[C@@H]([C@@H](C)CC)C(=O)N(C)CC(=O)N(C)[C@H]3CCCCCN(C3=O)[C@@H](Cc3ccc(F)cc3)C(=O)N(C)CC(=O)N[C@@H](CCc3cc(F)c(C(F)(F)F)c(F)c3)C(=O)N2C1 [PP1189] |  |  |  |  | 0.066 nM | 16.1 nM | B (a compound having 3 or more and less than 10 is denoted as B) | B (a compound having 3 or more and less than 10 is denoted as B) | 
13 | CCOC[C@H]1C(=O)N[C@@H]([C@@H](C)CC)C(=O)N(C)CC(=O)N(C)[C@H]2C/C=C\CCN(C2=O)[C@@H](CC2CCCCC2)C(=O)N(C)CC(=O)N[C@@H](CCc2ccc(C(F)(F)F)c(OC)c2)C(=O)N2C[C@@H](C)C[C@H]2C(=O)N(C)C2(CCC2)C(=O)N(C)[C@@H](C2CCCC2)C(=O)N(C)[C@H](C(=O)N(C)C)CC(=O)N1C [PP2371] |  | 41.9 nM | A (a compound having 10 or more and less than 20 is denoted as A) | B (a compound having 3 or more and less than 10 is denoted as B) |  |  |  |  | 0.64 nM
14 | CCO[C@@H]1C[C@H]2C(=O)NC3(CCC3)C(=O)N(C)[C@@H](C3CCCC3)C(=O)N(C)[C@H](C(=O)N3CCOCC3)CC(=O)N(C)[C@@H](Cc3ccsc3)C(=O)N[C@@H]([C@@H](C)CC)C(=O)N(C)CC(=O)N(C)[C@H]3CCCCCN(C3=O)[C@@H](Cc3ccc(C(F)(F)F)cc3)C(=O)N(C)CC(=O)N[C@@H](CCc3cc(F)c(C(F)(F)F)c(F)c3)C(=O)N2C1 [PP1164] |  |  |  |  | 0.52 nM | 95.9 nM | B (a compound having 3 or more and less than 10 is denoted as B) | B (a compound having 3 or more and less than 10 is denoted as B) | 
